The source of these data is patent US20160029629A1, “LAWN GROWTH-PROMOTING AGENT AND METHOD OF USING SAME” (BAYER CROPSCIENCE AKTIENGESELLSCHAFT, priority 2013, published 2016).

The structures appear in SMILES notation.

One test deals with Agrostis stolonifera. As to the kind of experiment: Biologic Example 2: seeded lawn test, length of above-ground and root portions after soil treatment. It counts as in vivo. Here is the method: Test crop: Agrostis stolonifera Test method: Plastic cups (diameter 20 cm, depth 5 cm) were filled with a soil mixture (1:1 mixture of sand and mulch), the soil was treated (2,000 L/ha water) with penflufen prepared to a predetermined concentration (Cerenturf Forte) on the day A. stolonifera was planted and at 0.5 leaf cycles, after which germination state was examined. In order to ensure evenness of irrigation, an atomizer was used for a fixed number of pushes, and water amount was monitored so as to be uniform. A basal application was not used. Examination method: Cuttings were taken at random from the test area, and the lengths of the above-ground and root portions were measured.

A further test relates to Zoysia Matrella. As to the kind of experiment: Biological Example 1: sod growth test, weight of roots, runners and erect stems after spray treatment. It counts as in vivo. Particulars: for Roots weight: 334 ppm spray, 2,000 L/ha; for Roots weight / Erect stem weight / Erect stems/runners / Roots weight vs. untreated / Roots/(roots + runners + erect stems) / Roots/runners / Runner weight: 170 days later; for Erect stem weight / Erect stems/runners / Roots weight vs. untreated / Roots/(roots + runners + erect stems) / Roots/runners / Runner weight: 334 ppm spray. An excerpt: Test crop: Zoysia Matrella
Test method: Z. Matrella sod was laid in a roughly 15 cm checked pattern, and, approximately one month later, penflufen prepared to a predetermined concentration (Cerenturf Forte; aqueous suspension of 22.7 wt % penflufen and 77.3% surfactant and water, prepared according to a normal method) was sprayed thereon (2,000 L/ha). 170 days later, a hole cutter was used to cut out sod sections and interstitial sections, the sections were separated into roots, runners, and erect stems, and the weight of each was measured.

In test [1] the test system is brown patch (Rhizoctonia solani). Particulars: in vivo; cited from earlier work.
[2] abbreviates: 525 ppm, treated at 0.5 leaf cycles, 5 days after treatment.
[3] abbreviates: 525 ppm, treated on day of planting, 20 days after treatment.
Setting [4] is: 142 ppm, treated at 0.5 leaf cycles, 5 days after treatment.
[5] abbreviates: 142 ppm, treated on day of planting, 20 days after treatment.
The mark [6] stands for this setting: 283 ppm, treated at 0.5 leaf cycles, 5 days after treatment.
Setting [7] is: 283 ppm, treated on day of planting, 20 days after treatment.

`Cc1nc(C(F)(F)F)c(C(=O)Nc2c(Br)cc(OC(F)(F)F)cc2Br)s1` [Thifluzamide]: in the test with Agrostis stolonifera (setting [2]), the “Above-ground portion (mm)” value was 16.9 mm, the “Roots (mm)” value amounted to 2.0 mm and the Roots/above-ground portion % is recorded as 12.0%. Besides, in the test with Agrostis stolonifera (setting [3]), the “Above-ground portion (mm)” value is 15.3 mm, the “Roots (mm)” value turned out to be 1.4 mm and the Roots/above-ground portion % is 9.1%.
For `Cc1nn(C)c(F)c1C(=O)Nc1ccccc1C(C)CC(C)C` (stereo not shown) [Penflufen, N-[2-(1,3-dimethylbutyl)phenyl]-5-fluoro-1,3-dimethyl-1H-pyrazol-4-carboxamide], the “Amount of roots compared to the untreated area” value in the test on Zoysia Matrella (both the interstitial section and the sod section) was “increase in the amount of roots”. Also, in the test with Zoysia Matrella (in vivo), the “Ratio of the root weight to the total weight of the roots, runners, and erect stems, treated vs untreated area” value is recorded as “higher in the treated area than in the untreated area”. In the test on Zoysia Matrella (interstitial section), the “Amount of roots compared to the untreated area” value is “especially marked increase”, the “Roots weight” value is given as 1.13 g, the “Erect stem weight” value amounted to 4.57 g and the Erect stems/runners is listed as 124%. Besides, in the test with Zoysia Matrella (interstitial section), the “Roots weight vs. untreated” value came out at 127%, the “Roots/(roots + runners + erect stems)” value stood at 12.02%, the Roots/runners is listed as 31% and the “Runner weight” value amounted to 3.70 g. In the test with Zoysia Matrella (sod section), the “Roots weight” value is 1.57 g, the “Erect stem weight” value is recorded as 11.52 g, the Erect stems/runners is 130% and the “Roots weight vs. untreated” value is given as 103%. Also, in the test on Zoysia Matrella (sod section), the “Roots/(roots + runners + erect stems)” value is 7.16%, the Roots/runners came to 18% and the “Runner weight” value turned out to be 8.84 g. In the test on Agrostis stolonifera (setting [4]), the “Above-ground portion (mm)” value was 18.8 mm, the “Roots (mm)” value is given as 3.9 mm and the Roots/above-ground portion % is 20.6%. In addition, in the test on Agrostis stolonifera (setting [5]), the “Above-ground portion (mm)” value amounted to 15.9 mm, the “Roots (mm)” value amounted to 3.3 mm and the Roots/above-ground portion % is given as 20.8%. In addition, in the test on Agrostis stolonifera (setting [6]), the “Above-ground portion (mm)” value came out at 17.3 mm, the “Roots (mm)” value is reported as 3.5 mm and the Roots/above-ground portion % worked out at 20.1%. Further, in the test on Agrostis stolonifera (setting [7]), the “Above-ground portion (mm)” value is listed as 17.3 mm, the “Roots (mm)” value came to 3.2 mm and the Roots/above-ground portion % is 18.8%. Moreover, in the test on Agrostis stolonifera (registered weight (283 ppm) and half-weight, planting day and 0.5 leaf cycle treatment), the “Root growth relative to above-ground portions” value is recorded as “root growth tended to be promoted over that of above-ground portions”. Moreover, in test [1], the “Effectiveness against brown patch” value was “extremely effective”.
